Data from patent US8404855B2, “Substituted enaminocarbonyl compounds” (Bayer CropScience AG, priority 2006, dated 2013).

Columns and labels:
[1] = tested on: green peach aphid (Myzus persicae); assay: Myzus persicae test, hydroponic treatment (MYZUPE sys.); type: in vivo; settings: pea plant in treated water
Experimental: The preparation of active compound is mixed with water. The stated concentration refers to the amount of active compound per volume unit of water (mg/l=ppm). The treated water is filled into containers housing a pea plant (Pisum sativum) which is then infected with the green peach aphid (Myzus persicae).
(§1) After the desired period of time, the kill in % is determined.

[2] = tested on: Lucilia cuprina larvae; assay: Lucilia cuprina test (LUCICU); type: in vivo; settings: treated horse meat
Experimental: as §1

[3] = tested on: cotton aphid (Aphis gossypii); assay: Aphis gossypii test (APHIGO), leaf dip; type: in vivo; settings: cotton leaves dipped
Experimental: as §1

[4] = tested on: green peach aphid (Myzus persicae); assay: Myzus test; oral (MYZUPE O); type: in vivo
[5] = tested on: green peach aphid (Myzus persicae); assay: Myzus persicae test (MYZUPE T), leaf dip; type: in vivo; settings: 20 ppm; cabbage leaves dipped; comparison with prior art
Experimental: as §1

[6] = tested on: green peach aphid (Myzus persicae); assay: Myzus test (MYZUPE spray treatment); type: in vivo
Description: In this test, for example, the following compounds of the Preparation Examples show good activity: see table

[7] = tested on: adult fleas (Ctenocephalides felis); assay: Ctenocephalides felis; oral (CTECFE); type: in vivo; settings: 100 ppm in citrated cattle blood
Experimental: Part of the concentrate is diluted with citrated cattle blood, and the desired concentration is prepared.
20 unfed adult fleas (Ctenocephalides felis) are placed into a chamber whose top and bottom ends are closed with gauze. A metal cylinder whose bottom end is closed with parafilm is placed onto the chamber. The cylinder contains the blood/active compound preparation, which can be taken up by the fleas through the parafilm membrane. The blood is warmed to 37° C., but the flea chamber is at room temperature.
as §1

[8] = tested on: Meloidogyne incognita; assay: Meloidogyne test (MELGIN spray treatment); type: in vivo; settings: 20 ppm; gall formation, 100% = no galls; comparison with prior art
Experimental: Containers are filled with sand, active compound solution, Meloidogyne incognita egg/larvae suspension and lettuce seeds. The lettuce seeds germinate and the plants develop. On the roots, galls are formed.
After the desired period of time, the nematicidal activity is determined by the formation of galls in %. 100% means that no galls were found; 0% means that the number of galls on the treated plants corresponds to that of the untreated controls.

[9] = tested on: Boophilus microplus; assay: Boophilus microplus test (BOOPMI injection); type: in vivo; settings: 20 ppm (so in the source), 100% = no tick has laid fertile eggs, comparison with prior art
Experimental: The solution of active compound is injected into the abdomen (Boophilus microplus), and the animals are transferred into dishes and kept in a temperature-controlled room.
100% means that no tick has laid any fertile eggs.

[10] = tested on: larvae of the mustard beetle (Phaedon cochleariae); assay: Phaedon test (PHAECO spray treatment); settings: 500 g/ha; Chinese cabbage leaf disks sprayed
[11] = 0.8 ppm, comparison with prior art
[12] = 4 ppm, comparison with prior art
[13] = 500 g/ha, Chinese cabbage leaf disks sprayed

With `O=C1C=C(N(Cc2ccc(Cl)nc2)CC(F)F)CO1` [Example 1, 4-[[(6-Chloropyridin-3-yl)methyl](2,2-difluoroethyl)amino]furan-2(5H)-one] the “Kill rate in % after 6 days” value [1, 11] was 100%, the “Kill rate in % after 2 days” value [2, 12] was 100% and the “Kill rate in % after 6 days” value [3, 11] was 60%. For the same compound, the “Kill rate in % after 6 days” value [3, 12] was 98%, the “Kill rate in % after 5 days” value ([4]; 0.032 ppm, oral, comparison with prior art) was 100% and the “Kill rate in % after 6 days” value [5] was 95%. For the same compound, the “Kill rate in % after 5 days” value ([6]; 4 g/ha, leaf disks sprayed, comparison with prior art) was 80%.
`O=C1C=C(N(CCCF)Cc2ccc(Cl)nc2)CO1` [Example 2, 4-[[(6-Chloropyridin-3-yl)methyl](3-fluoro-n-propyl)amino]furan-2(5H)-one] was tested, and the “Kill rate in % after 5 days” value ([4]; 20 ppm, oral uptake by sucking) was 100% and the “Kill rate in % after 5 days” value [6, 13] was 100%.
With `O=C1C=C(N(CC=C(Cl)Cl)Cc2ccc(Cl)nc2)CO1` [Example 3, 4-[[(6-Chloropyridin-3-yl)methyl](3,3-dichloroprop-2-en-1-yl)amino]furan-2(5H)-one] the “Kill rate in % after 5 days” value [6, 13] was 100%.
For `O=C1C=C(N(CCF)Cc2ccc(Cl)nc2)CO1` [Example 4, 4-[[(6-Chloropyridin-3-yl)methyl](2-fluoroethyl)amino]furan-2(5H)-one], the “Kill rate in % after 6 days” value ([1]; 0.16 ppm, comparison with prior art) was 55%, the “Kill rate in % after 6 days” value [1, 11] was 100% and the “Kill rate in % after 6 days” value [3, 12] was 99%. For the same compound, the “Kill rate in % after 1 day” value ([7]; comparison with prior art) was 30%, the “Kill rate in % after 6 days” value [5] was 80% and the “Kill rate in % after 14 days” value [8] was 70%. For the same compound, the “Kill rate in % after 7 days” value [9] was 100%.
With `CC1OC(=O)C=C1N(Cc1ccc(Cl)nc1)CC(F)F` (centres unmarked) [Example 6, 4-[[(6-Chloropyridin-3-yl)methyl](2,2-difluoroethyl)amino]-5-methylfuran-2(5H)-one] the “Kill rate in % after 5 days” value [6, 13] was 100%.
For `O=C1OCC(N(Cc2ccc(Cl)nc2)CC(F)F)=C1Br` [Example 7, 3-Bromo-4-[[(6-chloropyridin-3-yl)methyl](2,2-difluoroethyl)amino]furan-2(5H)-one], the “Kill rate in % after 5 days” value [6, 13] was 100%.
In the case of `O=C1OCC(N(Cc2ccc(Cl)nc2)CC(F)F)=C1Cl` [Example 8, 3-Chloro-4-[[(6-chloropyridin-3-yl)methyl](2,2-difluoroethyl)amino]furan-2(5H)-one], the “Kill rate in % after 6 days” value ([1]; 4 ppm) is reported as 98%, the “Kill rate in % after 2 days” value ([2]; 100 ppm) is reported as 100% and the “Kill rate in % after 6 days” value ([3]; 20 ppm) is reported as 100%. For the same compound, the “Kill rate in % after 5 days” value [6, 13] was 100%.
For `O=C1C=C(N(Cc2ccc(F)nc2)CC(F)F)CO1` [Example 15], the “Kill rate in % after 6 days” value ([1]; 4 ppm) was 100%, the “Kill rate in % after 2 days” value ([2]; 100 ppm) was 90% and the “Kill rate in % after 6 days” value ([3]; 100 ppm) was 100%. For the same compound, the “Kill rate in % after 7 days” value [10] was 100%, the “Kill rate in % after 2 days” value [7] was 90% and the “Kill rate in % after 5 days” value [6, 13] was 100%.
In the case of `O=C1C=C(N(Cc2ccc(Cl)nc2)CC(F)Cl)CO1` (centres unmarked) [Example 17, 4-[[(6-chloropyridin-3-yl)methyl](2-chloro-2-fluoroethyl)amino]furan-2(5H)-one], the “Kill rate in % after 7 days” value [10] is reported as 100% and the “Kill rate in % after 5 days” value [6, 13] is reported as 100%.
With “(E/Z)-4-[[(6-Chloropyridin-3-yl)methyl](2-fluorovinyl)amino]-5-methylfuran-2(5H)-one [Example 5]” the “Kill rate in % after 5 days” value [6, 13] was 100%.
